Reference: US20110150769A1, “IDENTIFICATION AND USE OF COMPOUNDS FOR TREATING PERSISTENT PAIN” (priority 2009, published 2011)
Entries after “also recorded” stand apart in the source; their conditions may differ.

What was measured:
mouse MrgprC11 = biological target: T1, mouse MrgprC11 (Mus musculus, UniProt Q8CIP3); details: Han et al, 2002, Lembo et al.; cited from earlier work
T1 sequence (Q8CIP3 1-322): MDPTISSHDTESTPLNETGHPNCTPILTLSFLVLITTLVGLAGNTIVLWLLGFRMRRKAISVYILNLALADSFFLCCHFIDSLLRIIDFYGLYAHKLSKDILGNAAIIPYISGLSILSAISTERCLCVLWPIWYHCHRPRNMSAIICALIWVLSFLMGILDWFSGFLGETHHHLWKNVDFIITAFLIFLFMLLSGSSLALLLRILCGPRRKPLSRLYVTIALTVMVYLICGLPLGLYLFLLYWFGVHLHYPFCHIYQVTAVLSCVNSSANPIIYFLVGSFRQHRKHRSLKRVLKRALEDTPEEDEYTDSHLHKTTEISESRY

[1] = system: CFA-induced thermal hyperalgesia in mice; test: CFA-induced heat hyperalgesia (Hargreaves test) after intrathecal injection; format: in vivo, mouse
Method: All behavioral tests were performed with an experimenter blinded to the genotype. The mice used in the tests were backcrossed to C57BI/6 mice for at least five generations and were 2 to 3 month-old males (20-30 g).
CFA-induced heat hyperalgesia: the intraplantar region of one hind paw of each mouse was injected with 6 μl of 50% CFA solution or 10 μl of 1% carrageneen solution in saline. Thermal pain sensitivity was assessed by recording paw withdrawal latencies on exposure to a defined radiant heat stimulus (Hargreaves test) before CFA injection and 30 min after injection.
(§1) BAM 8-22 was purchased from Tocris (Bristol, UK) and was suspended in 0.9% saline. The drug was injected intrathecally under brief isoflurane (1.5%) anesthesia to reduce stress. A 30-gauge, 0.5-inch needle connected to a 10-μl syringe was inserted into one side of the L5 or L6 spinous process at an angle of approximately 20° above the vertebral column and slipped into the groove between the spinous and transverse processes. The needle was moved carefully forward to the intervertebral space.
The ability of BAM 8-22 to modulate persistent inflammatory pain was determined by examining enhanced pain sensitivity to a noxious heat stimulus, as monitored by the Hargreaves test 24 hours after intra-plantar injection of CFA (6 μl, 50%) into one hind paw. […] In WT mice, a single intrathecal injection of BAM 8-22 (1 mM, 5 μl) was able to alleviate thermal hyperalgesia at 30 min post-injection, increasing the PWL by 1.9-fold compared to pre-drug baseline (FIG. 6A, WT, n=13, ipsilateral paw).

DRG neurons = test: Calcium imaging of cultured DRG neurons; format: cell-based, mouse
Method: Calcium Imaging of Cultured Dorsal Root Ganglia (DRG) Neurons
DRG neurons were plated on poly-D-lysine/laminin-coated coverslips and cultured for 24 hours. […] Briefly, neurons were loaded with Fura 2-acetomethoxy ester (Molecular Probes) for 30 min in dark at room temperature. After washing, neurons were imaged at 340/380 nm excitation to detect intracellular free calcium. All tests were performed with an experimenter blinded to the genotype.

human MrgprX1 = human MrgprX1 (Homo sapiens, UniProt Q96LB2); details: literature; cited from earlier work
awake mice = test: Spontaneous pain responses after intrathecal injection in awake mice; format: in vivo, mouse; details: awake WT and Mrgpr-clusterΔ−/− mice
Method: as §1
Intrathecal injection of BAM 8-22 in awake mice elicited short-term (less than 10 min) spontaneous pain responses.

[2] = system: chronic constriction injury model of neuropathic pain in mice; test: CCI-induced mechanical allodynia (von Frey test) after intrathecal injection; format: in vivo, mouse; details: 0.5 mM, 5 μl i.th.
Source text: A chronic constriction injury (CCI) at the left sciatic nerve was induced in adult male mice. Inhalation anesthesia was induced with a constant level of isoflurane (2.0%) delivered through a nose cone. Under aseptic conditions, the left sciatic nerve at the middle thigh level was separated from the surrounding tissue and loosely tied with three nylon sutures (9-0 nonabsorbable-monofilament, S&T AG, Neuhausen, Switzerland). The distance between two adjacent ligatures was around 0.5 mm.
CCI-induced mechanical allodynia: mechanical sensitivity was assessed with the von Frey test using the frequency method. Two calibrated von Frey monofilaments (low force: 0.07 g and high force: 0.45 g) were used. Each von Frey filament was applied perpendicularly to the plantar side of each hind paw for approximately 1 sec; the stimulation was repeated 10 times to both hind paws. The occurrence of paw withdrawal in each of these 10 trials was expressed as a percent response frequency: paw withdrawal frequency (PWF)=(number of paw withdrawals/10 trials)×100%.
BAM 8-22 was purchased from Tocris (Bristol, UK) and was suspended in 0.9% saline. The drug was injected intrathecally under brief isoflurane (1.5%) anesthesia to reduce stress. […]

opioid receptors = details: literature; cited from earlier work
[3] = system: acute thermal nociception in mice; test: Tail immersion test (50° C.) after intrathecal injection; format: in vivo, mouse; details: naive WT and Mrgpr-clusterΔ−/− mice, 1 mM, 5 μl i.th.
Method: Tail immersion test: mice were gently restrained in a 50-ml conical tube that the mice voluntarily entered. The protruding one third of the tail was then dipped into a 50° C. water bath. Latency to respond to the heat stimulus with vigorous flexion of the tail was measured three times and averaged.
as §1
To determine whether intrathecal BAM 8-22 also affected acute thermal nociception, tail-immersion tests in naïve WT and Mrgpr-clusterΔ^−/− mice were performed.

Chain of human MrgprX1 (Q96LB2 whole entry): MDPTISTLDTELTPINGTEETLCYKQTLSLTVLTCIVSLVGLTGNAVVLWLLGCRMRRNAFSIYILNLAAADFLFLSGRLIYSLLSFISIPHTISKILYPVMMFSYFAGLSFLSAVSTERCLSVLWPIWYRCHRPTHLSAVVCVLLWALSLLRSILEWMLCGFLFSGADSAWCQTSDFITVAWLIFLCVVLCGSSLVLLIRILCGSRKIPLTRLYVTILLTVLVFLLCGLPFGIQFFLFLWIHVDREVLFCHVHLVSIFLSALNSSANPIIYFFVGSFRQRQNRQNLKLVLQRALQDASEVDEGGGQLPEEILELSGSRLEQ

**Q.** What does the source list for BAM 8-22?
**A.** activation of mouse MrgprC11 (mouse MrgprC11): specifically activates; anti-hyperalgesic effect, ipsilateral hind paw ([1]; Mrgpr-clusterΔ−/− mice, 1 mM, 5 μl i.th., 24 h after CFA): not observed; sensitivity to acute radiant heat (Hargreaves test) ([1]; WT and Mrgpr-clusterΔ−/− mice, contralateral hind paw): did not significantly change; thermal hyperalgesia of the ipsilateral hind paw ([1]; WT mice, 1 mM, 5 μl i.th., 24 h after CFA): significantly alleviated; increase of paw withdrawal latency (PWL) compared to pre-drug baseline ([1]; WT mice, ipsilateral paw, 1 mM, 5 μl i.th., 30 min post-injection, 24 h after CFA): 1.9 fold; PWL of the contralateral (control side) hind paw ([1]; either group (WT, Mrgpr-clusterΔ−/−), 1 mM, 5 μl i.th.): did not significantly affect; responses in DRG neurons (DRG neurons; adult mutant (Mrgpr-clusterΔ−/−) DRG neurons): no responses; percentage of DRG neurons responding, WT vs MrgprA1GFP/GFP mice (DRG neurons; comparison of WT and MrgprA1GFP/GFP mice): did not differ significantly; responses in DRG neurons (DRG neurons; newborn Mrgpr-clusterΔ−/− mice): few or no responses; activation of human MrgprX1 (human MrgprX1): specifically activates; duration of spontaneous pain responses elicited by intrathecal injection (awake mice): less than 10 min; CCI-induced mechanical pain hypersensitivity (paw withdrawal frequency), ipsilateral hind paw ([2]; WT mice, low-force 0.07 g and high-force 0.45 g, 14-18 days post-injury, after 30 min): significantly attenuated; also recorded: significantly reduced; paw withdrawal responses (PWF) of the contralateral, uninjured side ([2]; either group): did not significantly change; also recorded: did not significantly reduce; activation of opioid receptors (opioid receptors): but not opioid receptors; tail flick latency vs pre-drug [3]: not significantly different; also recorded: did not significantly change
